The experiment concerns HCT-116. The experiment in a line: Cytotoxicity against human HCT116 cells. It is filed as functional. The note with it: read-out: ED50 (the source's name).

The values below come from ChEMBL document CHEMBL1155609, “New cytotoxic sterol glycosides from the octocoral Carijoa (Telesto) riisei” (2000).

In brackets after ≈: the same amount, converted by molar mass.

Turning to `CC(=O)OCC(C)CCC[C@@H](C)[C@H]1CC[C@H]2[C@@H]3C[C@@H](O)[C@@]4(O)C[C@@H](O[C@@H]5OC[C@@H](O)[C@@H](OC(C)=O)[C@@H]5O)CC[C@]4(C)[C@H]3CC[C@]12C` (some centres not stated) [RIISEIN A], the EC50 is 2 µg/mL (≈ 3.06 µM). With `CC(=O)OCC(C)CCC[C@@H](C)[C@H]1CC[C@H]2[C@@H]3C[C@@H](O)[C@@]4(O)C[C@@H](O[C@@H]5OC[C@@H](OC(C)=O)[C@@H](O)[C@@H]5O)CC[C@]4(C)[C@H]3CC[C@]12C` (some centres not stated) [RIISEIN B], the EC50 turned out to be 2 µg/mL (≈ 3.06 µM).
